Data published in patent US4049795A, “Treatment of hemorrhagic shock” (priority 1974, dated 1977).
Values joined by “and” are separate entries in the source; they are usually repeats but may differ in a detail not shown here. Equal values may be shown once. Read-outs that look alike come from different tables or passages of the source.

Columns and labels:
[1] = tested on: reticulo-endothelial system; assay: Phagocytic activity of the reticulo-endothelial system, carbon clearance (HALPERN); type: in vivo, rabbit; conditions: 1 g/kg
Excerpt: That technique is based on the study of the kinetics of the disappearance in the blood of particles of carbon injected into the vein. The kinetics of disappearance follow the equation [formula] in which formula C1 is the concentration of carbon in the blood at time T1 and C2 is the concentration of carbon in the blood at time T2, K being a constant. The constant K, called phagocytic index, represents the phagocytic activity of the cells of the reticule-endothelial system under the experimental conditions. For the tests, the technique and carbon suspension described by […]. Physiol. of Paris, Vol. 50, p. […] The study was done on rabbits of the same stock, male or female, or an average weight of about 2.5 kg, devided into four batches of four animals each. The first batch was used as controls and received, by slow intravenous injection, 10 ml of a 0.8% solution of sodium chloride ten minutes before the injection of 4 mg of carbon per 100 g of animal. […] In all the tests, a total volume of 10 ml was injected with a fairly closely related injection speed (less than five minutes).

[2] = tested on: response to adrenalin, noradrenalin and serotonin; assay: Response to adrenalin, noradrenalin and serotonin in the dog; type: in vivo; conditions: in the presence of dihydroxyacetone
[3] = tested on: electro-encephalograms; conditions: in vivo
[4] = tested on: Rabbit atrium; assay: Isolated rabbit atrium
Excerpt: The technique used for this study was the same as that described above for the ileum of the rabbit, but replacing the ileum with bled rabbit atrium. The preservation liquid used as LOCKE's liquid.

[5] = tested on: rats; assay: Toxicity, intraperitoneal injection in rats
[6] = Tolerance, intraperitoneal route, rabbits; conditions: rabbit, in vivo, ip, single dose, read-out: tolerated single dose
Excerpt: Rabbits tolerate a single dose of 8 g/kg by the intraperitoneal route.

[7] = tested on: Nitrogen anoxemia; assay: Nitrogen anoxemia in rabbits; type: in vivo, rabbit
Method: The tests were done on rabbits weighing an average of 2.5 kg. The fastening of the cranial electrodes was done under local anaesthesia with procaine, as was the placing of the catheters in a femoral artery to record the blood pressure. The tracheotomies and tracheal intubations were also done under local anaesthesia using procaine. The temperature was maintained at around 38° C. Three types of anoxemia were investigated; 3. Nitrogen anoxemia: The animal was curarized and artifically ventilated as indicated above. Anoxemia was obtained by connecting a nitrogen gasbag to the air intake of the BEAUDOUIN apparatus; general non-hypercapnic anoxemia occurred. Air was […] seconds. […] A latency of 30 minutes was observed before anoxemia was caused.

[8] = tested on: free fatty acids in the plasma; assay: Non-esterified fatty acids in the plasma (DOLE); type: in vivo, rabbit; conditions: 1 g/kg
Method: Doses of 1 and 2 mg of adrenalin were introduced subcutaneously into rabbits weighing 2.5 to 3.5 kg.
FIGS. 8, 9 and 10 show the variation in the percentage of non-esterified fatty acids in the plasma as a function of the time. […]

[9] = tested on: rats; assay: Toxicity, oral administration in rats; type: in vivo, rat; conditions: six rats
[10] = tested on: glucidic metabolism; assay: Glucidic metabolism under intravenous perfusion in rabbits (lactacidemia, pyruvicemia, glycemia); type: in vivo, rabbit
Method: These tests were carried out on rabbits weighing an average of 2.500 kg.
A trachetomy was carried out under local anaesthesia with procaine. […] A saphenous vein and the two femoral arteries were catheterized under local anaesthesia in order to register the blood pressure by a manometer and to take blood samples; a jugular vein was catheterized to the base of the skull to sample cerebral venous blood.
The results obtained were compared with those obtained following a perfusion carried out in the same way with sodium d,l-lactate at a dose of 40 mg/kg/min.
The glycemia was measured by the enzymatic method in the arterial and cerebral venus blood. The samples were taken before the perfusion, at the end of the perfusion, and at 30 minutes and 60 minutes after perfusion.

[11] = tested on: blood pressure; conditions: for blood pressure after first injection: Clinical Example 12, 2 g
Excerpt: A person who had suffered from high blood pressure for a long time underwent an urgent operation for the removal of an intra-cerebral hematoma. […] A person who had suffered from high blood pressure and cardiac arrhythmias, was undergoing an operation for the removal of a bilateral sub-dural hematoma. […] A person of generally good health but who had undergone surgery in the previous month for the excision of a cancer of the cecum, was undergoing an operation for a cerebral metastasis. […] A perfusion of two units of blood (800 ml ) was effected to compensate for the moderate blood losses.

[12] = tested on: oxygen consumption of the rat; assay: Oxygen consumption in metabolism apparatus for small animals (BARGETON and […]); type: in vivo
Excerpt: The results obtained are given as percentage of the control tests in the following table I.

[13] = tested on: erythrocytic aggregation of the microcirculation (sludge); assay: Erythrocytic aggregation of the microcirculation (sludge), mesenteric circulation of the rabbit; type: in vivo; conditions: independent of the experimental cause of sludge
Method: This phenomenon was observed by using the technique developed by […] and BRUE (Agressologie, Vol. 4, No. 3, p. 299 ff of 1963): it entails a microscopic observation of the mesenteric circulation of the rabbit. […] The hemorrhagic shock was obtained by the […] method. The perfusion of adrenalin was carried out at a dose of 10 mg/kg/min. for 10 to 15 minutes. The perfusion of lactate was effected at a dose of 0.39 g/min for 15 minutes. The perfusion of ethyl alcohol (in a 20% aqueous solution) was carried out at a dose of 20 ml of solution (i.e. 4 ml of absolute alcohol) for 15 minutes.

[14] = tested on: isolated segment of aorta; assay: Isolated segment of aorta, tonus

For `O=C(CO)CO` [dihydroxyacetone], the “speed of purification of the carbon particles with respect to control animals” value ([1]; 10 minutes before lactic acid 0.9 g/kg, FIG. 6) was “considerably increases”, the “speed at which the carbon particles disappear with respect to control animals” value ([1]; FIG. 5) was “practically no change” and the “response to adrenalin, noradrenalin and serotonin” value [2] was “remained unchanged”. For the same compound, the “formation of slow waves” value [3] was “does not seem to favour the formation of slow waves”, the amplitude of atrium ([4]; 800 mg per 75 ml of preservation liquid) was “a slight increase in amplitude” and the “effect on inhibitory action of sodium lactate added subsequently” value ([4]; dihydroxyacetone 800 mg per 75 ml, then 600 mg of sodium lactate) was “a slight opposition to its inhibitory action”. The “action on the lactate when it was added first” value ([4]; lactate added first) was “no action”, the chronotropic action ([4]; rabbit atrium) was “negative chronotropic action” and the “animals died, repeated injection every 2 hours” value ([5]; 4.5 g/kg every 2 hours, third group of 5 rats) was 3 animals. For the same compound, the maximum non-lethal dose ([5]; intraperitoneal injection, rats) was “about 7.50 g/kg”, the MTD [6] was 8000 mg/kg and the “recuperation latency, nitrogen anoxemia” value ([7]; 1 g/kg intravenously) was “a slight improvement”. For the same compound, the “recuperation time, nitrogen anoxemia” value ([7]; 1 g/kg intravenously) was “no improvement”, the “survival time, nitrogen anoxemia” value ([7]; 1 g/kg intravenously, prior perfusion) was “minor” and the “blood pressure in nitrogen anoxemia” value ([7]; anoxemia preceded by perfusion of dihydroxyacetone) was “maintained a high value”. For the same compound, the “percentages of non-esterified fatty acids in the plasma after adrenalin” value ([8]; after 1 mg of adrenalin, fed animals, FIG. 10) was “general tendency toward increased percentages”, the “percentage of non-esterified fatty acids in the plasma, fasted animals” value ([8]; animals without food for 24 hours, FIG. 11) was “return to normal” and the “animals died at oral dose of 80 g/kg” value [9] was “one”. For the same compound, the “lactacidemia compared with perfusion of sodium lactate” value ([10]; 66 mg/kg over 15 minutes) was “values lower than those obtained after a perfusion of sodium lactate”, the “lactacidemia at 30 and 60 minutes after the end of perfusion” value ([10]; 30 and 60 minutes after perfusion) was “continued to increase at 30 and 60 minutes after the end of perfusion” and the glycemia ([10]; after a perfusion) was “increased considerably”. The “lactacidemia when perfusion of sodium lactate was followed by perfusion of dihydroxyacetone” value ([10]; after sodium lactate) was “a progressive fall in the lactacidemia”, the pyruvicemia ([10]; rabbit, intravenous perfusion) was “increased in parallel with lactacidemia” and the “blood pressure after first injection” value ([11]; after two hours) was 95 mm Hg. For the same compound, the “blood pressure after first injection” value ([11]; one hour, from 90) was 130 mm Hg, the “blood pressure after second injection” value ([11]; Clinical Example 12, second 2 g in 10% glucose solution, remained) was 130 mm Hg and the “blood pressure after injection” value ([11]; Clinical Example 13, 2 g over 15 minutes, from 60) was 100 mm Hg. For the same compound, the “blood pressure after injection” value ([11]; Clinical Example 14, 2 g, 45 minutes later) was 170 mm Hg, the “blood pressure after injection” value ([11]; Clinical Example 14, 2 g, within 20 minutes, from 70) was 130 mm Hg and the “blood pressure after perfusion” value ([11]; Clinical Example 15, 2 g, within 15 minutes, from 60) was 110 mm Hg. The “blood pressure after injection, stabilized” value ([11]; Clinical Example 16, 3 g) was 100 mm Hg, the “blood pressure after injection, initial rise” value ([11]; Clinical Example 16, 3 g, from 80) was 120 mm Hg and the post-operative complications ([11]; human, in vivo) was “no post-operative complications”. For the same compound, the undesirable side effects ([11]; human, in vivo) was “without undesirable side effects”, the “mean decrease (oxygen consumption)” value ([12]; 2 g / kilogram) was 6.5 and the “Difference between the control measurement and the measurement after injection (oxygen consumption)” value ([12]; 2 g/kg, individual tests No. 1 to 12) was 0 percentage of the control test and -18 percentage of the control test and -16 percentage of the control test and -13 percentage of the control test and -11 percentage of the control test. The “mean decrease (oxygen consumption)” value ([12]; 4 g / kilogram) was 4.1, the “Difference between the control measurement and the measurement after injection (oxygen consumption)” value ([12]; 4 g/kg, individual tests No. 1 to 8) was -13 percentage of the control test and -10 percentage of the control test and the “oxygen consumption of the rat” value ([12]; overall result in words) was “decreased the oxygen consumption of the rat”. The “intravascular aggregation (sludge)” value [13] was “caused the intravascular aggregation to disappear”, the mesenteric capillary circulation [13] was “re-established the mesenteric capilliary circulation” and the “tonus of an isolated segment of aorta” value [14] was “does not act on the tonus”.
